Columns and labels:
SW620 cells = assay: SW620 Cell Growth Inhibition Test (SRB Assay); assay type: cell-based; details: Homo sapiens, SW-620, 91 h incubation
Procedure: SW620 Cell Growth Inhibition Test (SRB Assay)
Cell strains: SW620 (human colorectal cancer cell strains);
SRB: available from Sigmaaldrich, goods number: S9012, lot number: 047K3751. […] was reserved at the room temperature. 0.4% (w/v) of working solution was formulated with 1% of glacial acetic acid. The solution was reserved at 4° C.; anti-tumor compounds; DMSO.
Culture medium: 90% L15+10% FBS;
1. A plate (10 cm) of cells in logarithmic growth phase normally cultured was collected. The culture solution was sucked out. The plate was washed wtih 5 mL of PBS 1-2 times;
2. PBS was sucked out. […] of 0.25% pancreatin was added to infiltrate the cells for 30 s;
3. The pancreatin was sucked out. The culture plate was placed in an incubator. Digestion was carried out for about 1.5-2 min at 37° C.;
4. 4 mL of complete culture solution was added to the culture plate to stop the digestion. The cells were carefully scoured with micropipette (1 ml) to give a uniform single cell suspension;
5. Cell suspension was counted. The suspension was diluted to 1.5×10^5/ml. The resulting suspension was developed uniformly on a plate by 15000 cells/100 μl per well. The culture plate was incubated overnight under 5% CO2 at 37° C. In day 2, 100 μl of culture solution comprising a compound was added in each well, and further incubated for 91 h under 5% CO2 at 37° C.;
6. The culture solution was sucked out. 100 uL of TCA fixed cells which were diluted to 10% were added to each well. The plate was kept in a refrigerator for 1 h at 4° C.
7. TCA stationary liquid was sucked out. Each well was washed with 150 μL of ddH2O five times;
8. After the stationary liquid was cleansed, the plate was dried in the air at the room temperature;
9. 60 μL of SRB staining solution was added in each well. The well was stained for 15 min at the room temperature;
10. The SRB staining solution was sucked out. Each well was washed with 150 μL of 1% glacial acetic acid five times;
11. After the SRB staining solution was cleansed, the plate was dried in the air at the room temperature;
12. 100 μL of 10 mM Tris was added in each well, the plate was vibrated to dissolve out SRB;
13. OD values were determined at 570 nM.
To: OD values of the starting content of cells when the cells were developed on a plate;
PC: OD values of cells after normal growth in control wells without a compound;
Ti: OD values of cells after growth in test wells with a compound;
NC: Background OD values of blank wells without a compound and cells
Therefore: Ratio of cells in test wells to normal wells (% of control cell growth)=(Ti−To)/(PC−To)×100%
Ratio GI50 was concentration of a compound at the point of 50%.
Therefore: Ratio of killed cells to inoculated cells (% of killed cell)=(Ti−To)/(To−NC)×100%
LC50 was concentration point of a compound when half of the starting inoculated concentration was reached.
Concentration of a compound at this point is defined as TGI (total growth inhibition).

Her2 kinase = biological target: T1, Her2 kinase (Homo sapiens, UniProt P04626); assay: Inhibition Activity Assay on Her2 Enzyme (ELISA, PGT substrate); assay type: biochemical; details: 8 min at 4° C., read-out: Inhibition Activity (EC50) on Her-2
T1 construct: purchased Cell Signaling Tech #7382
Procedure: Inhibition Activity Assay on Her2 Enzyme
1. Her2 kinase, Cell Signaling Tech, #7382, Lot. 2, reserved at −80° C.;
2. PBST: PBS+0.05% (v/v) Tween 20;
3. Confining liquid: 3% of BSA in PBS;
4. HEPEs buffer (2×): 50 mM HEPEs, 20 mM MgCl2, 0.1 mM MnCl2, 0.2 mM Na3VO4, adjusted to pH of 7.4 with NaOH;
5. PGT, Sigma, Cat#P0275): 2 mg/ml of stock solution was prepared by dissolving PBS, reserved at −20° C.
6. ATP: […] of stock solution was prepared by dissolving ddH2O, reserved at −20° C.;
7. Mice anti-phosphorylation tyrosine-HRP: Invitrogen-037720, 0.5 mg/ml, reserved at 4° C.;
8. TMB: Cell Signaling Tech, Cat #7004L;
9. DTT: 2.5 M of stock solution was prepared with ddH2O, reserved at −20° C. Before use, 2×HEPEs buffer was added in the solution to the final concentration of 1.25 mM.
1. 2 mg/ml of PGT was diluted with PBS to 0.2 mg/ml. 60 μl of the resulting solution was added in each well. The elisa plate was placed in a refrigerator at 4° C. and coated overnight;
2. The coating solution was discarded to stop the coating. The plate was washed four times with PBS, and then beaten to dryness;
3. The elisa plate was placed in a refrigerator at 4° C., drained out and stood for 3h.
4. […] of aqueous solution of each compound was diluted with ddH2O to a desirable concentration. Then, the solution was added in the corresponding elisa well by 25 μl/well;
5. 2 nM of ATP solution was diluted with ddH2O to 25 folds and then sufficiently mixed. The resulting solution was separately added in each elisa well by 25 μl per well (25 μl ddH2O was added in the negative control);
6. Her2 kinase was diluted with 2×TKB to 800 folds. The resulting solution was added in the elisa well by 50 μl per well. Then, the enzyme reaction began. Moreover, the elisa plate was immediately placed in a micro-oscillator. The reaction is carried out for 8 min at the temperature of 4° C.;
7. 2% of SDS was added in the elisa well to stop the reaction by adding 100 μl of SDS in each well. The solution was sufficiently mixed on the micro-oscillator to sufficiently mix for about 5 min;
8. The reaction solution was sucked out. The plate was washed four times with PBST. After the plate was beaten to dryness, 0.25 μg/ml of mice anti-phosphorylation tyrosine-HRP which was diluted with confining liquid was added in the plate by 100 μl per well, and then reacted for 30 min at the room temperature.
9. The antibody reaction solution was sucked out. The plate was washed six times with PBST. After the plate was beaten to dryness, TMB peroxidase substrate was added in the plate with 100 μl/well, and then reacted in the dark for 15 min at the room temperature;
10. 100 μl of 2N H2SO4 was added in the solution to stop the chromogenic reaction. After the bubbles were cleansed, the solution was measured in elisa at 450 nm.
OD values were converted in relative inhibition ratios according to following formula: Relative inhibition ratio=[1−(experiment values−NC mean values)/(PC mean values−NC mean values)]×100%

T1 sequence (P04626 676-1255 limits assumed): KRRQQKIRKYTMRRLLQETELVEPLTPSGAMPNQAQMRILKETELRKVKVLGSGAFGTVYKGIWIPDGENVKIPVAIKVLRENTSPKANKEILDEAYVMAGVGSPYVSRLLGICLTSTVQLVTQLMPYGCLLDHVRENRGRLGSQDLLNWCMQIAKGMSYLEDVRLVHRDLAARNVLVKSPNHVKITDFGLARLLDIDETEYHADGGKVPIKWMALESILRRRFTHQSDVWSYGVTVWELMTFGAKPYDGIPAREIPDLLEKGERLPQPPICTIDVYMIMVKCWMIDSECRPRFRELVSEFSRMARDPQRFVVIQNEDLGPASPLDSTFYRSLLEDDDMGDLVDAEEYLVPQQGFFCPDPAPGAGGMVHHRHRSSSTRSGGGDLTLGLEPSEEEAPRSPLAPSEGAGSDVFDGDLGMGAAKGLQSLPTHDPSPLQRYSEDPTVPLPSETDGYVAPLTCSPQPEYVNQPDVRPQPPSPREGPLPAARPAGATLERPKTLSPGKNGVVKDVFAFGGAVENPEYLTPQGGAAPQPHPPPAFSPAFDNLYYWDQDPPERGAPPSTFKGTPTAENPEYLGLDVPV

SMILES | GI50 (SW620 cells) | EC50 (Her2 kinase)
C#Cc1cccc(Nc2c(C#N)cnc3cc(O[C@H]4CCOC4)c(NC(=O)/C=C/CN(C)C)cc23)c1 [Example 140, (S,E)-N-(3-CYANO-4-(3-ETHYNYLPHENYLAMINO)-7-(TETRAHYDROFURAN-3-YL-OXY)QUINOLIN-6-YL)-4-(DIMETHYLAMINO)-BUT-2-ENAMIDE] | 2.3 µM | 0.11 µM
CN(C)C/C=C/C(=O)Nc1cc2c(Nc3ccc(OCc4ccccn4)c(Cl)c3)c(C#N)cnc2cc1O[C@H]1CCOC1 [Example 138, (S,E)-N-(4-(3-CHLORO-4-(PYRIDIN-2-YL-METHOXY)PHENYLAMINO)-3-CYANO-7-(TETRAHYDROFURAN-3-YL-OXY)QUINOLIN-6-YL)-4-(DIMETHYLAMINO)-BUT-2-ENAMIDE] | 1.78 µM | 0.244 µM
CN(C)C/C=C/C(=O)Nc1cc2c(Nc3ccc(OCc4ccccn4)c(Cl)c3)c(C#N)cnc2cc1O[C@@H]1CCOC1 [Example 139, (R,E)-N-(4-(3-CHLORO-4-(PYRIDIN-2-YL-METHOXY)PHENYLAMINO)-3-CYANO-7-(TETRAHYDROFURAN-3-YL-OXY)QUINOLIN-6-YL)-4-(DIMETHYLAMINO)-BUT-2-ENAMIDE] | 1.9 µM | 
CN(C)C/C=C/C(=O)Nc1cc2c(Nc3ccc(F)c(Cl)c3)c(C#N)cnc2cc1O[C@H]1CCOC1 [Example 142, (S,E)-N-(4-(3-CHLORO-4-FLUOROPHENYLAMINO)-3-CYANO-7-(TETRAHYDROFURAN-3-YL-OXY)QUINOLIN-6-YL)-4-(DIMETHYLAMINO)-BUT-2-ENAMIDE] | 2.3 µM | 
C#Cc1cccc(Nc2c(C#N)cnc3cc(OC4CCOC4)c(NC(=O)/C=C/CN(C)C)cc23)c1 (stereo not drawn) [Example 5, (E)-N-(3-CYANO-4-(3-ETHYNYLPHENYLAMINO)-7-(TETRAHYDROFURAN-3-YL-OXY)QUINOLIN-6-YL)-4-(DIMETHYLAMINO)-BUT-2-ENAMIDE] | 1.68 µM | 0.096 µM
CN(C)C/C=C/C(=O)Nc1cc2c(Nc3ccc(OCc4cccc(F)c4)c(Cl)c3)c(C#N)cnc2cc1OC1CCOC1 (stereo not drawn) [Example 9, (E)-N-(4-(4-(3-FLUOROBENZYLOXY)-3-CHLOROPHENYLAMINO)-3-CYANO-7-(TETRAHYDROFURAN-3-YL-OXY)QUINOLIN-6-YL)-4-(DIMETHYLAMINO)-BUT-2-ENAMIDE] | 2.1 µM | 0.221 µM
C#Cc1cccc(Nc2c(C#N)cnc3cc(O[C@@H]4CCOC4)c(NC(=O)/C=C/CN(C)C)cc23)c1 [Example 141, (R,E)-N-(3-CYANO-4-(3-ETHYNYLPHENYLAMINO)-7-(TETRAHYDROFURAN-3-YL-OXY)QUINOLIN-6-YL)-4-(DIMETHYLAMINO)-BUT-2-ENAMIDE] | 1.4 µM | 
CN(C)C/C=C/C(=O)Nc1cc2c(Nc3ccc(F)c(Cl)c3)c(C#N)cnc2cc1OC1CCOC1 (stereo not drawn) [Example 4, (E)-N-(4-(3-CHLORO-4-FLUOROPHENYLAMINO)-3-CYANO-7-(TETRAHYDROFURAN-3-YL-OXY)QUINOLIN-6-YL)-4-(DIMETHYLAMINO)-BUT-2-ENAMIDE] | 3.5 µM | 0.161 µM
CN(C)C/C=C/C(=O)Nc1cc2c(Nc3ccc(OCc4ccccn4)c(Cl)c3)c(C#N)cnc2cc1OC1CCOC1 (stereo not drawn) [Example 21, (E)-N-(4-(3-CHLORO-4-(PYRIDIN-2-YL-METHOXY)PHENYLAMINO)-3-CYANO-7-(TETRAHYDROFURAN-3-YL-OXY)QUINOLIN-6-YL)-4-(DIMETHYLAMINO)-BUT-2-ENAMIDE] | 1.78 µM | 0.234 µM

From patent US9187458B2, “Cyanoquinoline derivatives” (Tianjin Hemay Bio-Tech Co., LTD., priority 2010, dated 2015)
